Assays:
HOP-92 = assay: Growth inhibition of human HOP92 cells assessed as cell growth at 10 uM incubated for 48 hrs by sulforhodamine B assay relative to control; type: functional; conditions: HOP-92, 48 h, read-out: Activity
MDA-MB-231 = assay: Growth inhibition of human MDA-MB-231 cells assessed as cell growth at 10 uM incubated for 48 hrs by sulforhodamine B assay relative to control; type: functional; conditions: MDA-MB-231, 48 h, read-out: Activity
HCT-116 = assay: Growth inhibition of human HCT116 cells assessed as cell growth at 10 uM incubated for 48 hrs by sulforhodamine B assay relative to control; type: functional; conditions: HCT-116, 48 h, read-out: Activity
KM12 = assay: Growth inhibition of human KM12 cells assessed as cell growth at 10 uM incubated for 48 hrs by sulforhodamine B assay relative to control; type: functional; conditions: KM12, 48 h, read-out: Activity
OVCAR-8 = assay: Growth inhibition of human OVCAR8 cells assessed as cell growth at 10 uM incubated for 48 hrs by sulforhodamine B assay relative to control; type: functional; conditions: OVCAR-8, 48 h, read-out: Activity
HT-29 = assay: Growth inhibition of human HT-29 cells assessed as cell growth at 10 uM incubated for 48 hrs by sulforhodamine B assay relative to control; type: functional; conditions: HT-29, 48 h, read-out: Activity
NCI/ADR-RES = assay: Growth inhibition of human NCI/ADR-RES cells assessed as cell growth at 10 uM incubated for 48 hrs by sulforhodamine B assay relative to control; type: functional; conditions: read-out: Activity
HOP-62 = assay: Growth inhibition of human HOP62 cells assessed as cell growth at 10 uM incubated for 48 hrs by sulforhodamine B assay relative to control; type: functional; conditions: HOP-62, 48 h, read-out: Activity
DU-145 = assay: Growth inhibition of human DU145 cells assessed as cell growth at 10 uM incubated for 48 hrs by sulforhodamine B assay relative to control; type: functional; conditions: DU-145, 48 h, read-out: Activity
SN12C = assay: Growth inhibition of human SN12C cells assessed as cell growth at 10 uM incubated for 48 hrs by sulforhodamine B assay relative to control; type: functional; conditions: read-out: Activity
T47D = assay: Growth inhibition of human T47D cells assessed as cell growth at 10 uM incubated for 48 hrs by sulforhodamine B assay relative to control; type: functional; conditions: read-out: Activity
UO-31 = assay: Growth inhibition of human UO31 cells assessed as cell growth at 10 uM incubated for 48 hrs by sulforhodamine B assay relative to control; type: functional; conditions: UO-31, 48 h, read-out: Activity
COLO 205 = assay: Growth inhibition of human COLO205 cells assessed as cell growth at 10 uM incubated for 48 hrs by sulforhodamine B assay relative to control; type: functional; conditions: COLO 205, 48 h, read-out: Activity
NCI-H23 = assay: Growth inhibition of human NCI-H23 cells assessed as cell growth at 10 uM incubated for 48 hrs by sulforhodamine B assay relative to control; type: functional; conditions: NCI-H23, 48 h, read-out: Activity
ACHN = assay: Growth inhibition of human ACHN cells assessed as cell growth at 10 uM incubated for 48 hrs by sulforhodamine B assay relative to control; type: functional; conditions: read-out: Activity
NCI-H522 = assay: Growth inhibition of human NCI-H522 cells assessed as cell growth at 10 uM incubated for 48 hrs by sulforhodamine B assay relative to control; type: functional; conditions: NCI-H522, 48 h, read-out: Activity
NCI-H226 = assay: Growth inhibition of human NCI-H226 cells assessed as cell growth at 10 uM incubated for 48 hrs by sulforhodamine B assay relative to control; type: functional; conditions: NCI-H226, 48 h, read-out: Activity
NCI-H460 = assay: Growth inhibition of human NCI-H460 cells assessed as cell growth at 10 uM incubated for 48 hrs by sulforhodamine B assay relative to control; type: functional; conditions: NCI-H460, 48 h, read-out: Activity
RXF 393 = assay: Growth inhibition of human RXF393 cells assessed as cell growth at 10 uM incubated for 48 hrs by sulforhodamine B assay relative to control; type: functional; conditions: RXF 393, 48 h, read-out: Activity
SNB-19 = assay: Growth inhibition of human SNB19 cells assessed as cell growth at 10 uM incubated for 48 hrs by sulforhodamine B assay relative to control; type: functional; conditions: SNB-19, 48 h, read-out: Activity
OVCAR-3 = assay: Growth inhibition of human OVCAR3 cells assessed as cell growth at 10 uM incubated for 48 hrs by sulforhodamine B assay relative to control; type: functional; conditions: OVCAR-3, 48 h, read-out: Activity
SK-MEL-28 = assay: Growth inhibition of human SK-MEL-28 cells assessed as cell growth at 10 uM incubated for 48 hrs by sulforhodamine B assay relative to control; type: functional; conditions: SK-MEL-28, 48 h, read-out: Activity
TK-10 = assay: Growth inhibition of human TK10 cells assessed as cell growth at 10 uM incubated for 48 hrs by sulforhodamine B assay relative to control; type: functional; conditions: TK-10, 48 h, read-out: Activity
SK-MEL-5 = assay: Growth inhibition of human SK-MEL-5 cells assessed as cell growth at 10 uM incubated for 48 hrs by sulforhodamine B assay relative to control; type: functional; conditions: SK-MEL-5, 48 h, read-out: Activity
786-0 = assay: Growth inhibition of human 786-0 cells assessed as cell growth at 10 uM incubated for 48 hrs by sulforhodamine B assay relative to control; type: functional; conditions: 786-0, 48 h, read-out: Activity
SK-MEL-2 = assay: Growth inhibition of human SK-MEL-2 cells assessed as cell growth at 10 uM incubated for 48 hrs by sulforhodamine B assay relative to control; type: functional; conditions: SK-MEL-2, 48 h, read-out: Activity
[1] = molecular target: Epidermal growth factor receptor (Homo sapiens, UniProt P00533); assay: Inhibition of recombinant human C-terminal His/N-terminal GST-tagged EGFR (668 to 1210 residues) expressed in baculovirus infected Sf9 cells at 10 uM using biotin-labeled poly[Glu:Tyr] (4:1) as substrate after 30 mins by Kinase-Glo plus luminescence assay relative to control
Epidermal growth factor receptor, sequence (P00533 whole entry, the tested form may be a part): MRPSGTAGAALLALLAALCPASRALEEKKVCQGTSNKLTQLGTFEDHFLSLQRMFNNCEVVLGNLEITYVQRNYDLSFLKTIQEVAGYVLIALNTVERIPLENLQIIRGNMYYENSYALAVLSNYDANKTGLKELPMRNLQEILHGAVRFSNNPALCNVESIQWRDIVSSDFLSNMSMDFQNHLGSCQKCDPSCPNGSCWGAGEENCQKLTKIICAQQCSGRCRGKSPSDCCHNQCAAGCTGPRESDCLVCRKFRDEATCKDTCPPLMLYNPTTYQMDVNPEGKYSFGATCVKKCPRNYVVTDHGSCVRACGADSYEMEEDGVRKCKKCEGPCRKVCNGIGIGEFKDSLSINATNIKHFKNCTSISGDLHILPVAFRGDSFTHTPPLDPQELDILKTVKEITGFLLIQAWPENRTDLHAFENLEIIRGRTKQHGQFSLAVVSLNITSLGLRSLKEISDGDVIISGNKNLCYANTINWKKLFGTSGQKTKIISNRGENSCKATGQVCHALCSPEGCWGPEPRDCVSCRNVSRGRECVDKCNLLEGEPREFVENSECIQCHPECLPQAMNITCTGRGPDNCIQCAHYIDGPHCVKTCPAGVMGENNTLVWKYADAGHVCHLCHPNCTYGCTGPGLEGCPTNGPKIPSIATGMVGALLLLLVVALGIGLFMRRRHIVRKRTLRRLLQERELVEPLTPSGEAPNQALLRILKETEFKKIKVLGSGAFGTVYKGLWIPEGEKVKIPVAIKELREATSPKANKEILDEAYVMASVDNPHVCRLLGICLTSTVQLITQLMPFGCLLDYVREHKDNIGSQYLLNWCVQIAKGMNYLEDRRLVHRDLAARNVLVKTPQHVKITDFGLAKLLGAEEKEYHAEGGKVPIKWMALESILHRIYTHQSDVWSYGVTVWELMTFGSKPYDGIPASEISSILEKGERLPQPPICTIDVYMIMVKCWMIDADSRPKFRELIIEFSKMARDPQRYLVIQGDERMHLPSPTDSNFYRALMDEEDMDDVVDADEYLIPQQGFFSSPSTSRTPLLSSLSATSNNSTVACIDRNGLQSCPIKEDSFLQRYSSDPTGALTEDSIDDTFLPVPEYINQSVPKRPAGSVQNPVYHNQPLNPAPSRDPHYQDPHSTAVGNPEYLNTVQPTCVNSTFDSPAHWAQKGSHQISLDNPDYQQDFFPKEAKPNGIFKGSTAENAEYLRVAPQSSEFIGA

LOX IMVI = assay: Growth inhibition of human LOXIMVI cells assessed as cell growth at 10 uM incubated for 48 hrs by sulforhodamine B assay relative to control; type: functional; conditions: read-out: Activity
SNB-75 = assay: Growth inhibition of human SNB75 cells assessed as cell growth at 10 uM incubated for 48 hrs by sulforhodamine B assay relative to control; type: functional; conditions: SNB-75, 48 h, read-out: Activity
SF-295 = assay: Growth inhibition of human SF295 cells assessed as cell growth at 10 uM incubated for 48 hrs by sulforhodamine B assay relative to control; type: functional; conditions: SF-295, 48 h, read-out: Activity
SR = assay: Growth inhibition of human SR cells assessed as cell growth at 10 uM incubated for 48 hrs by sulforhodamine B assay relative to control; type: functional; conditions: read-out: Activity
HL-60(TB) = assay: Growth inhibition of human HL-60(TB) cells assessed as cell growth at 10 uM incubated for 48 hrs by sulforhodamine B assay relative to control; type: functional; conditions: HL-60, 48 h, read-out: Activity

Row | SMILES | growth at 10 µM (HOP-92) [%] | growth at 10 µM (MDA-MB-231) [%] | growth at 10 µM (HCT-116) [%] | growth at 10 µM (KM12) [%] | growth at 10 µM (OVCAR-8) [%] | growth at 10 µM (HT-29) [%] | growth at 10 µM (NCI/ADR-RES) [%] | growth at 10 µM (HOP-62) [%] | growth at 10 µM (DU-145) [%] | growth at 10 µM (SN12C) [%] | growth at 10 µM (T47D) [%] | growth at 10 µM (UO-31) [%] | growth at 10 µM (COLO 205) [%] | growth at 10 µM (NCI-H23) [%] | growth at 10 µM (ACHN) [%] | growth at 10 µM (NCI-H522) [%] | growth at 10 µM (NCI-H226) [%] | growth at 10 µM (NCI-H460) [%] | growth at 10 µM (RXF 393) [%] | growth at 10 µM (SNB-19) [%] | further results
1 | CCOC(=O)c1c(C)oc2ncnc(Nc3ccc(F)cc3)c12 | 90.8 | 86.8 | 98.9 | 97.6 | 106 | 95.3 | 101 | 101 | 101 | 92.9 | 99.6 | 92.4 | 102 | 91.9 | 99 | 92.9 | 100 | 100 | 99.8 | 91.4 | growth at 10 µM (OVCAR-3): 104%; growth at 10 µM (SK-MEL-28): 97.5%; growth at 10 µM (TK-10): 96.5%; growth at 10 µM (SK-MEL-5): 102%; growth at 10 µM (786-0): 93.1%; growth at 10 µM (SK-MEL-2): 103%; inhibition [1]: 6%; growth at 10 µM (LOX IMVI): 99.5%; growth at 10 µM (SNB-75): 94.7%
2 | Cc1oc2ncnc(Nc3cccc(Cl)c3)c2c1CO | 90.5 | 76.5 | 81.6 | 91.4 | 108 | 90.5 | 86 | 89 | 86.2 | 88.6 | 78.8 | 56.9 | 93.9 | 87.5 | 76.7 | 89.8 | 80.6 | 94 | 85.4 | 87.3 | growth at 10 µM (SF-295): 93.2%; growth at 10 µM (OVCAR-3): 102%; growth at 10 µM (SK-MEL-28): 106%; growth at 10 µM (SR): 62.2%; growth at 10 µM (TK-10): 65.2%; growth at 10 µM (SK-MEL-5): 87.9%; growth at 10 µM (786-0): 78.3%; growth at 10 µM (SK-MEL-2): 98.1%; growth at 10 µM (HL-60(TB)): 54%; inhibition [1]: 69%; growth at 10 µM (LOX IMVI): 98.4%; growth at 10 µM (SNB-75): 86.5%
3 | CCOC(=O)c1c(C)oc2ncnc(Nc3ccc(OCc4ccc(Cl)c(Cl)c4)cc3)c12 | 116 | 84.3 | 94.5 | 102 | 113 | 99.7 | 103 | 101 | 108 | 93.3 | 90.1 | 98.4 | 111 | 95.8 | 102 | 91 | 94.4 | 102 | 101 | 103 | growth at 10 µM (SF-295): 94.7%; growth at 10 µM (OVCAR-3): 118%; growth at 10 µM (SK-MEL-28): 102%; growth at 10 µM (SR): 90%; growth at 10 µM (TK-10): 88.5%; growth at 10 µM (SK-MEL-5): 103%; growth at 10 µM (786-0): 94.3%; growth at 10 µM (SK-MEL-2): 103%; growth at 10 µM (HL-60(TB)): 96.6%; inhibition [1]: 0%; growth at 10 µM (LOX IMVI): 95.1%; growth at 10 µM (SNB-75): 102%
4 | CCOC(=O)c1c(C)oc2ncnc(Nc3ccc(OCc4cccc(C)c4)cc3)c12 | 104 | 88.6 | 90.6 | 96.1 | 106 | 87.5 | 97 | 101 | 101 | 88.6 | 87.3 | 101 | 100 | 94.9 | 98.1 | 81 | 101 | 95.5 | 111 | 99.7 | growth at 10 µM (SF-295): 101%; growth at 10 µM (OVCAR-3): 117%; growth at 10 µM (SK-MEL-28): 101%; growth at 10 µM (SR): 116%; growth at 10 µM (TK-10): 94.7%; growth at 10 µM (SK-MEL-5): 99.2%; growth at 10 µM (786-0): 103%; growth at 10 µM (SK-MEL-2): 100%; growth at 10 µM (HL-60(TB)): 108%; inhibition [1]: 6%; growth at 10 µM (LOX IMVI): 91.8%; growth at 10 µM (SNB-75): 106%
5 | CCOC(=O)c1c(C)oc2ncnc(Nc3ccc(OCc4cccc(F)c4)cc3)c12 | 104 | 101 | 78.1 | 92.9 | 97.6 | 92.7 | 86.2 | 87.8 | 94.9 | 90.3 | 91 | 85 | 84.2 | 91.8 | 62.1 | 85 | 87.6 | 68.4 | 116 | 99.5 | growth at 10 µM (SF-295): 82.7%; growth at 10 µM (OVCAR-3): 104%; growth at 10 µM (SK-MEL-28): 96.9%; growth at 10 µM (SR): 104%; growth at 10 µM (TK-10): 82.7%; growth at 10 µM (SK-MEL-5): 93.4%; growth at 10 µM (786-0): 86.1%; growth at 10 µM (SK-MEL-2): 102%; growth at 10 µM (HL-60(TB)): 109%; inhibition [1]: 34%; growth at 10 µM (LOX IMVI): 85.3%; growth at 10 µM (SNB-75): 119%
6 | Cc1oc2ncnc(Nc3cccc(F)c3)c2c1C(=O)NCCO | 101 | 91.2 | 105 | 97.9 | 105 | 96.8 | 114 | 97.4 | 105 | 98.7 | 95.4 | 96.5 | 111 | 99.6 | 103 | 88.4 | 106 | 105 | 109 | 104 | growth at 10 µM (OVCAR-3): 107%; growth at 10 µM (SK-MEL-28): 104%; growth at 10 µM (TK-10): 90.1%; growth at 10 µM (SK-MEL-5): 102%; growth at 10 µM (786-0): 93%; growth at 10 µM (SK-MEL-2): 103%; inhibition [1]: 20%; growth at 10 µM (LOX IMVI): 100%; growth at 10 µM (SNB-75): 92.2%

— ChEMBL document CHEMBL4251615, “Discovery of anilino-furo[2,3-d]pyrimidine derivatives as dual inhibitors of EGFR/HER2 tyrosine kinase and their anticancer activity” (Eur J Med Chem, 2018)
